The subject of experiment [1] is M. tuberculosis pyrG mutant 88.7 (V186G). Format: cell-based, Mycobacterium tuberculosis.
The subject of experiment [2] is M. tuberculosis ethA mutant 81.10 (Δ1109–1137). Format: cell-based, Mycobacterium tuberculosis.
Experiment [3] has as its system M. tuberculosis 82.14 (ethA W45R, pyrG V186G). The format is cell-based, Mycobacterium tuberculosis.
Experiment [4] deals with M. tuberculosis 82.19 (ethA L129P, pyrG V186G). Format: cell-based, Mycobacterium tuberculosis.
Experiment [5] concerns M. tuberculosis 82.22 (ethA ΔT-94, pyrG V186G). Format: cell-based, Mycobacterium tuberculosis.
For experiment [6], the system named is M. tuberculosis 88.10 (pyrG V186G). Format: cell-based, Mycobacterium tuberculosis.
The target in a further experiment is PyrG V186G mutant (Mycobacterium tuberculosis, UniProt P9WHK7, V186G). The format is biochemical, M. tuberculosis.

≈ marks a conversion by molar mass, not a printed value.

What is called MIC is the lowest concentration that inhibits growth of the organism. Read a low MIC as inhibition by little substance. Take `COc1ccc(NC(=O)c2cc([N+](=O)[O-])c(C)s2)cc1OC` [compound 11326054]: the MIC in experiment [1] was > 8 µg/mL. In experiment [2], the “resistance of 81.10 mutant (mutated in ethA gene)” value is on record as “resistant”.

`CCc1cc(C(N)=S)ccn1` [ETH, ethionamide, reference compound]: the MIC in experiment [3] was 10 µg/mL (≈ 60.2 µM); in experiment [4] it was 10 µg/mL (≈ 60.2 µM); in experiment [5], 10 µg/mL (≈ 60.2 µM); in experiment [1], 0.5 µg/mL (≈ 3.01 µM); in experiment [6] it was 0.5 µg/mL (≈ 3.01 µM); in experiment [2] it was 10 µg/mL (≈ 60.2 µM).

With `Cc1ccc(C(=O)O)s1` [compound 11326028, 5-methylthiophene-2-carboxylic acid], the MIC in experiment [1] is > 8 µg/mL. Further, the “resistance of 81.10 mutant (mutated in ethA gene)” value in experiment [2] is “resistant”.

Turning to `O=C(CCc1ccccc1)NC(=S)Nc1ccc(N2CCCCC2)cc1` [compound 7904688, 3-phenyl-N-[(4-piperidin-1-ylphenyl)carbamothioyl]propanamide], the minimum inhibitory concentration (MIC) in experiment [3] was >40 µg/mL; in experiment [4], >40 µg/mL; in experiment [5], >40 µg/mL; in experiment [1] it was 10 µg/mL (≈ 27.2 µM); in experiment [6], 10 µg/mL (≈ 27.2 µM); in experiment [2], >40 µg/mL.

As to `Cc1ccc(C(=O)Nc2ccc([N+](=O)[O-])cc2)s1` [compound 7947882, 5-methyl-N-(4-nitrophenyl)thiophene-2-carboxamide], the MIC in experiment [3] is >40 µg/mL; in experiment [4], >40 µg/mL; in experiment [5] it was >40 µg/mL; in experiment [6], 5 to 10 µg/mL.

On to `CC1=CC=C(C(=O)Nc2ccc([N+](=O)[O-])cc2)S1(=O)=O` [compound 11426026], for which the MIC in experiment [1] came to 2.5 µg/mL (≈ 8.5 µM). This molecule also had a minimum inhibitory concentration (MIC) in experiment [2] of 1 µg/mL (≈ 3.4 µM). For the same molecule, on PyrG V186G mutant, the “% of inhibition at 200 M PyrG V186G mutant” value came out at 18.3 ± 1.5% and the “activity against PyrG V186G mutant” value was “not active”.
